# Test results taken from patent EP0291164A2, “Growth-suppressing infusion medium, growth-suppressing cell culture medium and processes for the suppression of transformed cell growth” (SPECTRAL BIOANALYSIS LTD., priority 1987, dated 1988).
# Columns and labels:
# CCL-2 = assay: Cell growth by Lowry protein determination after 80 hours in zinc-supplemented culture medium; assay type: cell-based, human; details: CCL-2, about 1.6 mg/l to about 4.0 mg/l of Zn⁺⁺
# Excerpt: (§1) In the example, malignant transformed human cell lines obtained from the American Type Culture Collection, i.e., a human epithelial cervix carcinoma cell line, HeLa (ATCC No. CCL-2), a human adenocarcinoma carcinoma cell line of the colon, HT-29 (ATCC No. HTB-38) and a human adenocarcinoma carcinoma cell line of the breast, SK-BR-3 (ATCC No. HTB-30) were used. Non-transformed dipolid human fibroblast cells (MRC-5, ATCC No. CCL-171) were employed as a control. The cell lines were obtained from the American Type Culture Collection in a frozen condition. In order to reactivate the cells, the cells were subcultured in McCoy 5A (mod.) medium (Serva Company) containing 15% (v/v) fetal calf serum.
# (§2) The reactivated cells were allowed to reach the logarithmic growth phase and then detrypsinized and harvested. The harvested cells were washed twice with McCoy 5A (mod.) medium containing 15% (v/v) fetal calf serum and then resuspended in the same medium at a concentration of 10⁶ cells per ml. The correct cell concentration was determined using a Neubeuer-Turk count chamber in which the viability of the cells was also determined by means of Trypan blue coloring (see: Freshney, I.R., Culture of Animal Cells, Alan Riss Publ. Co., New York, N.Y. (1983)).
# (§3) To tubes containing 200,000 HTB-30 cells or 200,000 HTB-38 cells or 200,000 CCL-2 cells was added Cell Culture Medium Nos. 1, 2, 3, 4, 5, 6, 7, 8 or 9 described below and the cells were incubated for 80 hours. In addition, to tubes containing 200,000 human fibroblast cells (MRC-5) were added Cell Culture Medium Nos. 1, 2, 3, 4, 5, 6, 7, 8 or 9 described below and the cells were incubated for 80 hours. All of the cells were incubated at 36.5°C (± 0.5°C), 5% CO₂ and 95% air. Five duplicate tubes were employed for each cell culture medium for each cell.
# (§4) After the end of the incubation time, the culture medium was removed and the cells were washed three times with Dulbecco buffer solution (see: Dulbecco, R.U., Vogt, M., J. Exp. Med. 98:167-182 (1954)). Next, the cells were dried and octyl phenol polyethylene glycol ether was added at a concentration of 0.2% (v/v) to each tube to which 20 µl of 1.0 N NaOH had been additionally added per ml.
# (§5) After thorough mixing and allowing the samples to stand for 30 minutes at 20-25°C, 200 µl each of the resulting cell extracts were used for protein determinations according to the Lowry method (see: Lowry, O.H. et al., J. Biol. Chem. 193:265 (1951)).
# (§6) The Control in the Table below refers to Cell Culture Medium No. 1 at 4°C to which no cells had been added. […] All growth values are mean values from the five duplicate tubes ± the standard deviation.
# (§7) The growth value as a percent of the Control was determined according to the following formula: [formula]
# (§8) In addition, in the Table, the mean adsorption values are determinative of the concentration of protein in the cells and were evaluated at 660 nm.
# HTB-38 = assay: as above; assay type: cell-based, human; details: for decrease in protein yield: compared to Cell Culture Medium No. 1, 4800 min
# Excerpt: as §1, §2, §3, §4, §5, §6, §7, §8
# HTB-30 = assay: as above; assay type: cell-based, human; details: HTB-30, about 1.6 mg/l to about 4.0 mg/l of Zn⁺⁺
# Excerpt: as §1, §2, §3, §4, §5, §6, §7, §8
# Human Fibroblasts = assay: Cell growth by Lowry protein determination after 80 hours in zinc-supplemented culture medium (non-transformed control cells); assay type: cell-based; details: about 1.6 mg/l to about 4.0 mg/l of Zn⁺⁺
# Excerpt: as §1
# The reactivated cells were allowed to reach the logarithmic growth phase and then detrypsinized and harvested. […] The correct cell concentration was determined using a Neubeuer-Turk count chamber in which the viability of the cells was also determined by means of Trypan blue coloring (see: Freshney, I.R., Culture of Animal Cells, Alan Riss Publ. Co., New York, N.Y. (1983)). […]
# as §7, §8
structure (smiles),measurement,setting,value
"[Cl-].[Cl-].[Zn+2] [bivalent zinc, ZnCl₂]","growth rate, expressed as protein concentration",CCL-2,inhibited
same,decrease in protein yield,"HTB-38; HTB-38, 3.5 mg/l of Zn⁺⁺ (maximum growth suppression)",41.8%
same,"growth rate, expressed as protein concentration","HTB-38; HTB-38, about 1.6 mg/l to about 4.0 mg/l of Zn⁺⁺",inhibited
same,decrease in protein yield,"HTB-38; HTB-38, about 2.1 mg/l of Zn⁺⁺",24.8%
same,"growth rate, expressed as protein concentration",HTB-30,inhibited
same,"growth rate, expressed as protein concentration",Human Fibroblasts,not inhibited
